What was measured:
PPARγ = molecular target: T1, PPARγ (Homo sapiens, UniProt P37231); assay: Hela cell/luciferase reporter gene method, PPARγ agonist activity; format: cell-based; details: Hela cells, pPPRE3-TK-Luciferase reporter, 24 hrs incubation; read-out: agonistic activity on PPARγ (EC50)
T1 construct: expressed in transfected cells; host or cells: Hela cells
T1 sequence (P37231 1-505): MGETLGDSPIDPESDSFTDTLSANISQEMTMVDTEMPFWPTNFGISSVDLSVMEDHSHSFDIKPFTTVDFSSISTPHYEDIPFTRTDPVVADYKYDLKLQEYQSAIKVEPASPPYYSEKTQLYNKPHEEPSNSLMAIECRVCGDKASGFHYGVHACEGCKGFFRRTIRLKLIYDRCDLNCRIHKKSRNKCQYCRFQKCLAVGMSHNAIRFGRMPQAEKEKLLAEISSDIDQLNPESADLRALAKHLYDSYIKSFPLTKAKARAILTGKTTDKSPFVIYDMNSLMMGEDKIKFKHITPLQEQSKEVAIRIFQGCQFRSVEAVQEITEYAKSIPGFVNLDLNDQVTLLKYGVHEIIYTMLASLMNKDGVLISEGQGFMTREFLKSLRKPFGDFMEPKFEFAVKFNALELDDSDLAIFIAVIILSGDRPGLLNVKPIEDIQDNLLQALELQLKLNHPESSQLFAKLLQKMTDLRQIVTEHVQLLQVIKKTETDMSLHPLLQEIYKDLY
Method: (§1) This example measures the biological activity of a PPAR agonist using the Hela cell/luciferase reporter gene method.
(§2) The target plasmids PCMV PPARα (Ampicillin+), PCMV PPARγ (Ampicillin+), PCMV PPARδ (Ampicillin+), and pPPRE3-TK-Luciferase (Ampicillin+) were introduced into DH5a competent cells by heat shock treatment, respectively. After being incubated for 1 hour at 37° C. with shaking (180 rpm), the cells were inoculated on LB agar solid medium containing antibiotic Ampicillin, and invertedly cultured at 37° C. for 12-16 hours. Then the monoclonal colony cultured on the medium was taken and inoculated into LB liquid medium for expanded culture. The desired plasmid was extracted from the resulting bacterial solution with a Plasmid Midi Kit (Qiagen; #12143). The plasmid obtained by centrifugation was suspended in TE buffer, and the plasmid concentration was measured and the mixture was stored at −20° C. Hela cells in the exponential phase were seeded in 6-well plates (8-10^5 cells/well), and after 6-8 hours of culture, the cells were transfected using Lipofectamine® 3000 Transfection Reagent (Invitrogen; #L3000015). A plasmid containing a PPAR binding site (peroxisome proliferator response element, PPRE) and a firefly luciferase gene (pPPRE3-TK-Luciferase) and PPAR expression vector were co-transfected into a Hela cell with a total amount of plasmid DNA of 2.5 ug (the mass ratio of each PPAR expression vector is pPPRE:PPARα=6:1, pPPRE:PPARδ=8:1, and pPPRE:PPARγ=2:1) to construct a drug screening cell model for PPAR agonists. PPAR was binded to the ligand and then binded to the peroxisome proliferator response element (PPRE), thereby initiating downstream firefly luciferase expression and its expression intensity was directly proportional to the degree of PPAR activation. The cells after 24 hours transfection were prepared into a cell suspension with a cell concentration of […] by a complete culture solution, and seeded into a 96-well plate with 100 ul per well. After overnight culture, the medium was changed to a medium containing 1% FBS. 10 mM candidate compound stock (1000×) were 4-fold diluted in DMSO for 8 points, then supplemented with medium containing 1% FBS to a final concentration of 50 uM (5×) by addition of 25 μl of 5× compound diluent to each well in different concentration gradients and incubated under 37° C., 5% CO2 incubator for 24 hrs. The 96-well plate was taken out and 30 μl of Bright-Glo™ Luciferase Assay System (Promega #E2620) was added to each well. The Luciferase luminescence intensity was measured by a SynergyH1 full-function microplate detector. The obtained data was used to calculate EC50 using GraphPad Prism 5.0 software to determine the biological activity of the compound.
(§3) The agonistic activity of the compounds synthesized in Examples 1-41 on PPAR is represented by EC50 (see Table 1). EC50 refers to the drug concentration at which the compound has a 50% increase in the agonistic activity of the measured PPAR. The compound numbers in Table 1 correspond to the compound numbers in Examples 1-41.

PPARα = molecular target: T2, PPARα (Homo sapiens, UniProt Q07869); assay: Hela cell/luciferase reporter gene method, PPARα agonist activity; format: cell-based; details: Hela cells, pPPRE3-TK-Luciferase reporter, 24 hrs incubation; read-out: agonistic activity on PPAα (EC50)
T2 construct: expressed in transfected cells; host or cells: Hela cells
T2 sequence (Q07869 1-468): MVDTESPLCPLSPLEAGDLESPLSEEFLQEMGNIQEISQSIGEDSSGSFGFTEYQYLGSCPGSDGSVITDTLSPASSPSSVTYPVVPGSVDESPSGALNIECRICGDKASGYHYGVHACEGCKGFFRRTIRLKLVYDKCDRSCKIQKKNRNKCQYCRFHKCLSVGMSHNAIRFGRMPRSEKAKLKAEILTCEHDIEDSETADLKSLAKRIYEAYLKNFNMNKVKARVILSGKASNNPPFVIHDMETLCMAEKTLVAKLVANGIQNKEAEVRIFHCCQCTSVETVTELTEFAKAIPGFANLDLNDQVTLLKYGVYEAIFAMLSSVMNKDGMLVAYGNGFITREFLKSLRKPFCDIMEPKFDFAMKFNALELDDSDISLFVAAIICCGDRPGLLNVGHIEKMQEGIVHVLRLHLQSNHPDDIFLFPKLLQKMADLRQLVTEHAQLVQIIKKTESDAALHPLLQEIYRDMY
Method: as §1, §2, §3

PPARδ = molecular target: T3, PPARδ (Homo sapiens, UniProt Q03181); assay: Hela cell/luciferase reporter gene method, PPARδ agonist activity; format: cell-based; details: Hela cells, pPPRE3-TK-Luciferase reporter, 24 hrs incubation; read-out: agonistic activity on PPARδ (EC50)
T3 construct: expressed in transfected cells; host or cells: Hela cells
T3 sequence (Q03181 1-441): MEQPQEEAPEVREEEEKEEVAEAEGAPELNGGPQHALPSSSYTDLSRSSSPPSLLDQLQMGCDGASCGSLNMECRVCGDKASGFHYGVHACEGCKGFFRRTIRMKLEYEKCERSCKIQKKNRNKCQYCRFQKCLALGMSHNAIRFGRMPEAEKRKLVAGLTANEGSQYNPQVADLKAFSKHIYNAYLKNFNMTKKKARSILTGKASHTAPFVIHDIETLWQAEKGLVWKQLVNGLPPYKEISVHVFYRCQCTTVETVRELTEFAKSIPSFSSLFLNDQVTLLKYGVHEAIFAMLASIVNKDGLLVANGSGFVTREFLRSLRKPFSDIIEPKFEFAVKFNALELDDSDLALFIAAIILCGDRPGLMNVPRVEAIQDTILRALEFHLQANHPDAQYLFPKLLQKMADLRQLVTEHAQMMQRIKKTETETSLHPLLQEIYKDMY
Method: as §1
as §2, with “The desired plasmid was extracted from the resulting bacterial solution with a Plasmid Midi Kit (Qiagen; #12143).” left out

[1] = Pharmacokinetic (PK) experiments after intragastric administration in rats; format: in vivo, SD rats; details: male, SD, rat, plasma, po, intragastric administration 20 mg/kg
Method: Male SD rats, weighing 250-300 grams, were fasted overnight before testing. The test compound was dissolved in 30% sulfobutyl-R-cyclodextrin (SBE-β-CD) and administered intragastrically at a dose of 20 mg/kg. Blood was collected 15 minutes, 30 minutes, and 1, 2, 3, 4, […] and 24 hours after the administration. About 0.3 ml of blood was collected at each time point, placed in a centrifuge tube containing K2-EDTA (dipotassium ethylenediamine tetraacetate) and centrifuged (2,000 g, 10 minutes, 4° C.) to take the plasma, which was stored in an ultra-low temperature refrigerator at −80° C. A 50 μL plasma sample was mixed with 5 μl of internal standard (IS) and extracted with ethyl acetate. The residue was redissolved in acetonitrile after drying under vacuum. The sample was filtered and injected into an LC-MS/MS for analysis.

| Compound | EC50 (PPARγ) | EC50 (PPARα) | also measured |
| --- | --- | --- | --- |
| CSc1ccc(C(=O)/C=C/c2cc(C)c(OCC(=O)O)c(C)c2)c2occc12 [Compound 13, (E)-2-(2,6-dimethyl-4-(3-(4-(methylthio)benzofuran-7-yl)-3-oxoprop-1-en-1-yl)phenoxy)acetic acid] | 3410 nM | 476 nM | – |
| Cc1cc(/C=C/C(=O)c2ccc3sccc3c2)cc(C)c1OC(C)(C)C(=O)O [Compound 38, (E)-2-(4-(3-(benzo[b]thiophen-5-yl)-3-oxoprop-1-en-1-yl)-2,6-dimethylphenoxy)-2-methylpropanoic acid] | – | > 10000 nM | EC50 (PPARδ): 838 nM |
| Cc1cc(/C=C/C(=O)c2cccc3ccoc23)cc(C)c1OC(C)(C)C(=O)O [Compound 3, (E)-2-(4-(3-(benzofuran-7-yl)-3-oxoprop-1-en-1-yl)-2,6-dimethylphenoxy)-2-methylpropanoic acid] | 577 nM | 453 nM | – |
| COc1ccc(C(=O)/C=C/c2cc(C)c(OC(C)(C)C(=O)O)c(C)c2)c2occc12 [Compound 1, (E)-2-(4-(3-(4-methoxybenzofuran-7-yl)-3-oxoprop-1-en-1-yl)-2,6-dimethylphenoxy)-2-methylpropanoic acid] | 172 nM | 420 nM | – |

Compounds with a lower EC50 (PPARα), results first:

| EC50 (PPARγ) | EC50 (PPARα) | Compound | also measured |
| --- | --- | --- | --- |
| 122 nM | 156 nM | CSc1ccc(C(=O)/C=C/c2cc(C)c(OC(C)(C)C(=O)O)c(C)c2)c2oc(C)cc12 [Compound 14, (E)-2-(2,6-dimethyl-4-(3-(2-methyl-4-(methylthio)benzofuran-7-yl)-3-oxoprop-1-en-1-yl)phenoxy)-2-methylpropanoic acid] | – |
| 167 nM | 123 nM | Cc1ccc2cc(C(=O)/C=C/c3cc(C)c(OC(C)(C)C(=O)O)c(C)c3)oc2c1 [Compound 50, (E)-2-(2,6-dimethyl-4-(3-(6-methylbenzofuran-2-yl)-3-oxoprop-1-en-1-yl)phenoxy)-2-methylpropanoic acid] | – |
| 1100 nM | 83.9 nM | CSc1ccc2cc(C(=O)/C=C/c3ccc(OC(C)(C)C(=O)O)cc3)oc2c1 [Compound 56, (E)-2-methyl-2-(4-(3-(6-(methylthio)benzofuran-2-yl)-3-oxoprop-1-en-1-yl)phenoxy)propanoic acid] | – |
| 86.6 nM | 29.2 nM | CSc1ccc(C(=O)/C=C/c2cc(C)c(OC(C)(C)C(=O)O)c(C)c2)cc1 [Elafibranor, reference compound] | AUC(0-inf) [1]: 1350 ng·h/mL; AUC(0-t) [1]: 1350 ng·h/mL; Cmax [1]: 1140 ng/mL; Tmax [1]: 19.8 min; half-life ([1]; read-out: Terminal T1/2 (converted)): 49.2 min |

Source: patent US11306102B2, “1,3-di-substituted ketene compound and application thereof” (BEBETTER MED INC., priority 2017, dated 2022)
